Results published in patent publication US20250177473A1, “PEPTIDE REGULATORS OF METABOLISM” (Metabico, Inc., priority 2022, published 2025).

Experiments:
[1] = test system: C57BL/6 mice on a high-fat diet; experiment: Blood serum glucose, HOMA-IR and TNF-α after chronic administration in HFD mice; type: in vivo, mouse; details: metformin 250 mg/kg p.o.
Experimental: (§1) Groups of 10 animals were formed from the existing groups from Stage 2, with similar mean body weight (Table 6). The animals' bodyweight was monitored three times a week, water, and feed consumption—weekly. After the last treatment, the animals were euthanized for necropsy and their blood collected. The internal organs were examined for the presence of macro damage and weighed. The adipose tissue surrounding the epididymis was evaluated as a marker of obesity in animals. For histological examination, samples of adipose tissue and liver tissue were fixed in 10% formalin solution for further histological analysis.
At the end of the study, the animals were euthanized. […]
Blood serum was analyzed for glucose concentration using the Randox GB reagent kit on an automatic biochemical analyzer Sapphire-400 (Tokyo Boeki LTD, Japan), following the manufacturer's instructions.
Insulin concentration in blood serum samples was measured by enzyme immunoassay using a standard commercial kit, following the manufacturer's instructions. […] Based on the obtained data on the concentration of insulin and glucose measured in animals before necropsy, the derived parameter of insulin resistance HOMA-IR was calculated using the formula: […]
The concentration of proinflammatory cytokine TNFa and IL1 was measured in blood serum samples by ELISA using standard commercial kits, following the manufacturer's instructions. […]

TNF-α = TNF-α mRNA expression in LPS-induced primary mouse fibroblasts; type: cell-based; details: LPS 0.5 μg/mL 24 h; DLSKEPSISRE 0.05 mg/mL or metformin 1 mM
Experimental: The study was carried out in primary mouse fibroblasts. Isolation of fibroblasts was carried out with techniques described earlier (See Example 1). Fibroblasts were cultured for 3 days. The following stressors were applied separately: bacterial lipopolysaccharides (LPS), high glucose in the incubation medium, and serum-free incubation medium.
LPS is a major outer surface membrane component that induces an inflammatory response in cells.
Isolation of mRNA, synthesis of the first strand of cDNA, and RT-PCR were performed with techniques described earlier (See Example 1). Expression levels of IRS2, TNF-α, IL-6, and GSK3p (WNT-pathway) were analyzed.
The study was carried out in primary mouse fibroblasts. Isolation of fibroblasts was carried out with techniques described earlier (See Example 1). Incubation of fibroblasts with 100 μM individual peptides and 0.5 μg/mL LPS was carried out for 24 hours. Each treatment group was represented in two biological replicates.
Isolation of mRNA, synthesis of the first strand of cDNA, and RT-PCR were performed with techniques described earlier (See Example 1). Expression levels of RPL27, TNF-α, IL-6, and IRS2 genes were analyzed.

[2] = test system: C57BL/6 mice on a high-fat diet; experiment: Glucose tolerance test in mice on high-fat diet (HFD), acute administration; type: in vivo, mouse; details: Metformin 250 mg/kg single p.o.
Experimental: A standard laboratory rodent pellet SNIFF RI/M-H V1534-30 (58% carbohydrates, 9% fat, 33% protein, 306 kcal/100 g) was given ad libitum to the control animals. For HFD groups, the high-fat feed was used. For 1 kg of feed, 610 g of ground SNIFF feed and 360 g of melted pork lard were taken, water (˜250 ml, 60-70° C.), 10 g of sodium chloride, 30 g of sodium glutamate were added. The mixture was brewed to a dough consistency, and food granules were formed. Then the granules were dried at 60-70° C. for 10-12 hours. The finished food for consumption was transferred to the animal-keeping area. The prepared food was stored at 4° C. for no more than 7 days. The approximate energy value of the HFD feed was 516 kcal/100 g (45% fat, 35% carbohydrates, 20% protein).
The metabolic syndrome was modeled by keeping animals on a HFD for 16 weeks. The control group was kept on a standard diet (STD) during this period. Animals had free access to feed and water located in the cage lid.
At stage 1 of the study, to replicate the metabolic syndrome, 25 mice were kept on a STD (group 1), 140 mice—on a HFD (groups 2-5). The animals' body weight was monitored weekly. By the end of the 16th week, mice with the maximum gain were selected among the animals kept on a HFD, and four groups of 25 animals were formed.
On the day of the experiment, animals from groups 3-5 were injected with the tested substances: one half of the group (12 or 13 animals) 2 hours before the experiment and the other half—12 hours. Group 1 and 2 (STD control and HFD control) were injected with saline (Table 5).
The administration volume was 10 ml/kg for drugs administered i.p., 6 μl/animal for i.n. administration and 5 ml/kg for drugs administered p.o.
The animals were deprived of food for 12 hours before the glucose tolerance test and euthanasia. Animals had free access to water.
The animals were deprived of food for 12 hours before the test. Baseline glucose level was measured at the end of fasting (0 min time point) in the blood drop taken from the tip of the tail by incision (with a needle) of the tail vein. The test substances were administered according to the treatment group. Half of the animals received drug injections 2 hours, and the other half—12 hours before the test. The glucose concentration in the blood was determined 15, 30, 60, 120 minutes after i.p. 40% glucose solution administration in a dose of […] with Satellite Express (Elta, Russia) test system.

[3] = test system: C57BL/6 mice on a high-fat diet; experiment: Visceral fat weight and adipocyte histology after chronic administration in HFD mice; type: in vivo, mouse; details: four weeks
Experimental: as §1
After necropsy, the following internal organs were weighed: adrenal glands, kidneys, liver, pancreas, heart, spleen, and testicles.
During necropsy, the body's external state, internal surfaces, the cranial cavity, chest, abdominal and pelvic cavities with organs and tissues located in them, the neck with organs and tissues, the skeleton, and the musculoskeletal system were examined. The organs and tissues were fixed in 10% formalin. […]
Microscopic analysis was performed using a DMLA Leica transmitted light microscope (Germany), a Photometrics Cool SNAP cf video camera (USA), and Mekos software (Russia). […] One hundred adipocytes were measured on sections of the visceral fat samples in 15-20 random fields of view.

CN(C)C(=N)N=C(N)N [Metformin]
glucose concentration in the blood vs HFD control group ([1]; 4 weeks, EPSI 5 mg/kg i.p. and i.n.): decrease
TNF-α concentration in blood serum vs HFD control ([1]; four weeks, EPSI 5 mg/kg i.n.): reduced
LPS-induced expression of TNF-α (TNF-α): similarly
AUC of glucose in GTT ([2]; 2 h post-treatment): 1808 ± 131 mmol/L/min
glucose concentration in GTT ([2]; 2 h post-treatment, 0 min (basal)): 7.2 ± 0.374 mmol/L
glucose concentration in GTT ([2]; 2 h post-treatment, 60 min after glucose): 15.55 ± 1.46 mmol/L
glucose concentration in GTT ([2]; 2 h post-treatment, 120 min after glucose): 10.08 ± 0.875 mmol/L
AUC of glucose in GTT ([2]; 12 h post-treatment): 1857 ± 149 mmol/L/min
glucose concentration in GTT ([2]; 12 h post-treatment, 0 min): 7.0 ± 0.7 mmol/L
glucose concentration in GTT ([2]; 12 h post-treatment, 60 min after glucose): 15.7 ± 1.8 mmol/L
glucose concentration in GTT ([2]; 12 h post-treatment, 120 min after glucose): 11.2 ± 1.4 mmol/L
decrease in average linear size of visceral fat adipocytes compared to HFD control ([3]; Metformin 250 mg/kg p.o.): 31%
visceral fat (adipose tissue surrounding the epididymis) weight ([3]; EPSI 5 mg/kg i.p. and i.n., metformin 250 mg/kg p.o., vs HFD control): statistically significant decrease
